Legend:
Format in all cases: functional
Malme-3M = test: Growth inhibition of human MALME-3M cells at 10 uM after 48 hrs by sulforhodamine B assay; conditions: values are per cent of control
HL-60(TB) = test: Growth inhibition of human HL-60(TB) cells at 10 uM after 48 hrs by sulforhodamine B assay; conditions: HL-60, 48 h, read-out: GI
OVCAR-5 = test: Growth inhibition of human OVCAR5 cells at 10 uM after 48 hrs by sulforhodamine B assay; conditions: OVCAR-5, 48 h, values are per cent of control
HCT-116 = test: Growth inhibition of human HCT116 cells at 10 uM after 48 hrs by sulforhodamine B assay; conditions: HCT-116, 48 h, values are per cent of control
MDA-MB-231 = test: Growth inhibition of human MDA-MB-231 cells at 10 uM after 48 hrs by sulforhodamine B assay; conditions: MDA-MB-231, 48 h, values are per cent of control
BT-549 = test: Growth inhibition of human BT549 cells at 10 uM after 48 hrs by sulforhodamine B assay; conditions: BT-549, 48 h, values are per cent of control
COLO 205 = test: Growth inhibition of human COLO205 cells at 10 uM after 48 hrs by sulforhodamine B assay; conditions: COLO 205, 48 h, values are per cent of control
UO-31 = test: Growth inhibition of human UO31 cells at 10 uM after 48 hrs by sulforhodamine B assay; conditions: UO-31, 48 h, values are per cent of control
MCF7 = test: Growth inhibition of human MCF7 cells at 10 uM after 48 hrs by sulforhodamine B assay; conditions: MCF7, 48 h, values are per cent of control
DU-145 = test: Growth inhibition of human DU145 cells at 10 uM after 48 hrs by sulforhodamine B assay; conditions: DU-145, 48 h, values are per cent of control
NCI-H460 = test: Growth inhibition of human NCI-H460 cells at 10 uM after 48 hrs by sulforhodamine B assay; conditions: NCI-H460, 48 h, values are per cent of control
CCRF-CEM = test: Growth inhibition of human CCRF-CEM cells at 10 uM after 48 hrs by sulforhodamine B assay; conditions: values are per cent of control
CAKI-1 = test: Growth inhibition of human Caki1 cells at 10 uM after 48 hrs by sulforhodamine B assay; conditions: CAKI-1, 48 h, values are per cent of control
MDA-MB-435 = test: Growth inhibition of human MDA-MB-435 cells at 10 uM after 48 hrs by sulforhodamine B assay; conditions: MDA-MB-435, 48 h, values are per cent of control
Rattus norvegicus = test: Antiinflammatory activity against carrageenan-induced paw edema in Wister albino rat assessed as inhibition of edema at 50 mg/kg, ip administered 1 hr prior to carrageenan challenge measured after 1 hr relative to control; conditions: route intraperitoneal
A498 = test: Growth inhibition of human A498 cells at 10 uM after 48 hrs by sulforhodamine B assay; conditions: A498, 48 h, values are per cent of control
SK-MEL-28 = test: Growth inhibition of human SK-MEL-28 cells at 10 uM after 48 hrs by sulforhodamine B assay; conditions: SK-MEL-28, 48 h, values are per cent of control
SW-620 = test: Growth inhibition of human SW620 cells at 10 uM after 48 hrs by sulforhodamine B assay; conditions: SW-620, 48 h, values are per cent of control
SF-295 = test: Growth inhibition of human SF295 cells at 10 uM after 48 hrs by sulforhodamine B assay; conditions: SF-295, 48 h, values are per cent of control
[1] = Growth inhibition of human Hs 578T cells at 10 uM after 48 hrs by sulforhodamine B assay; conditions: values are per cent of control
KM12 = test: Growth inhibition of human KM12 cells at 10 uM after 48 hrs by sulforhodamine B assay; conditions: KM12, 48 h, values are per cent of control
SK-MEL-2 = test: Growth inhibition of human SK-MEL-2 cells at 10 uM after 48 hrs by sulforhodamine B assay; conditions: SK-MEL-2, 48 h, read-out: GI

Row | SMILES | growth, % of control at 10 µM (Malme-3M) | growth, % of control at 10 µM (OVCAR-5) | growth, % of control at 10 µM (HCT-116) | growth, % of control at 10 µM (MDA-MB-231) | growth, % of control at 10 µM (BT-549) | growth, % of control at 10 µM (COLO 205) | growth, % of control at 10 µM (UO-31) | growth, % of control at 10 µM (MCF7) | growth, % of control at 10 µM (DU-145) | growth, % of control at 10 µM (NCI-H460) | growth, % of control at 10 µM (CCRF-CEM) | growth, % of control at 10 µM (CAKI-1) | growth, % of control at 10 µM (MDA-MB-435) | inhibition in vivo at 50 mg/kg (Rattus norvegicus) | growth, % of control at 10 µM (A498) | growth, % of control at 10 µM (SK-MEL-28) | growth, % of control at 10 µM (SW-620) | growth, % of control at 10 µM (SF-295) | growth, % of control at 10 µM [1] | growth, % of control at 10 µM (KM12) | also measured
1 | [3H]N1C(=O)[C@@]2(c3ccccc31)N(C)C[C@@H](c1ccc(OC)cc1)[C@@]21Cc2ccccc2C1=O | 132% | 106% | 92.6% | 74.4% | 118% | 100% | 92.5% | 120% | 110% | 107% | 87.3% | 85.7% | 124% | 41.2% | 105% | 108% | 87.5% | 103% | 16.8% | 95.3% | growth, % of control at 10 µM (HL-60(TB)): 72.8%; inhibition of growth at 10 µM (SK-MEL-2): 8.7%
2 | [3H]C([3H])([3H])N1C(=O)[C@@]2(c3ccccc31)N(C)C[C@@H](c1ccc(OC)cc1)[C@@]21Cc2ccccc2C1=O | 104% | 97.7% | 59.8% | 94.3% | 101% | 104% | 75.5% | 100% | 128% | 95.4% | 72.1% | 91.1% | 101% | 46.9% | 95.2% | 101% | 83.3% | 89.1% | -4.27% | 98.2% | growth, % of control at 10 µM (HL-60(TB)): 170%; inhibition of growth at 10 µM (SK-MEL-2): -6.92%
3 | [3H]N1C(=O)[C@@]2(c3ccccc31)N(C)C[C@@H](c1cccs1)[C@@]21Cc2ccccc2C1=O | 93.5% | 98.8% | 92.2% | 78.3% | 119% | 120% | 95.8% | 109% | 92% | 109% | 91.4% | 106% | 115% | 49.9% | 102% | 117% | 89.5% | 105% | 69.8% | 94.3% | growth, % of control at 10 µM (HL-60(TB)): 89.7%; inhibition of growth at 10 µM (SK-MEL-2): 6.58%
4 | [3H]C([3H])([3H])N1C(=O)[C@@]2(c3ccccc31)N(C)C[C@@H](c1ccc(Cl)cc1)[C@@]21Cc2ccccc2C1=O | 102% | 95.4% | 24.3% | 79.3% | 111% | 70.5% | 66.1% | 91.8% | 91.1% | 67.1% | 108% | 71.8% | 101% | 47.2% | 82.3% | 90.6% | 67.8% | 65% | 55.2% | 68.7% | inhibition of growth at 10 µM (SK-MEL-2): -11.1%
5 | [3H]N1C(=O)[C@@]2(c3ccccc31)N(C)C[C@@H](c1ccc(Cl)cc1)[C@@]21Cc2ccccc2C1=O | 120% | 93.2% | 54.6% | 75.1% | 121% | 84.8% | 62.7% | 109% | 103% | 94.7% | 74.7% | 80% | 95.1% | 27.9% | 61.9% | 112% | 76.2% | 31.4% | -4.92% | 81.2% | growth, % of control at 10 µM (HL-60(TB)): 76.7%; inhibition of growth at 10 µM (SK-MEL-2): -6.14%
6 | [3H]C([3H])([3H])N1C(=O)[C@@]2(c3ccccc31)N(C)C[C@@H](c1cccs1)[C@@]21Cc2ccccc2C1=O | 123% | 102% | 108% | 84.3% | 131% | 107% | 93.5% | 103% | 121% | 107% | 90.5% | 106% | 111% | 33% | 103% | 105% | 89.1% | 60.4% | 21.1% | 107% | growth, % of control at 10 µM (HL-60(TB)): 70%; inhibition of growth at 10 µM (SK-MEL-2): -5.11%

From ChEMBL document CHEMBL1152855, “Regioselective synthesis of dispiro[1H-indene-2,3'-pyrrolidine-2',3''-[3H]indole]-1,2''(1''H)-diones of potential anti-tumor properties” (2009)
